Laboratory results taken from article PMC11764585, “Hybridization Design and High-Throughput Screening of Peptides with Immunomodulatory and Antioxidant Activities” (International Journal of Molecular Sciences, 2025).

Legend:
IL-6 = experiment: ELISA of IL-6 in RAW 264.7 culture supernatant; format: cell-based, mouse; conditions: RAW 264.7 cells, peptide 100 μg/mL, 24 h, vs CON group
Experimental: (§1) RAW 264.7 macrophages (2 × 10^6 cells/well) were seeded in 6-well plates and incubated for 12 h. Hybrid peptides and parent peptides were added to achieve a final concentration of 100 μg/mL, LPS (100 ng/mL) as a positive control. After 24 h of incubation, the culture supernatants were collected, and the levels of TNF-α, IL-6, and IL-1β were measured using ELISA kits according to the manufacturer’s instructions (Solarbio, Beijing, China).

IL-1β = experiment: ELISA of IL-1β in RAW 264.7 culture supernatant; format: cell-based, mouse; conditions: RAW 264.7 cells, peptide 100 μg/mL, 24 h, vs CON group
Experimental: as §1

TNF-α = experiment: ELISA of TNF-α in RAW 264.7 culture supernatant; format: cell-based, mouse; conditions: RAW 264.7 cells, peptide 100 μg/mL, 24 h, vs CON group
Experimental: as §1

RAW-Lucia NF-κB cells = experiment: NF-κB luciferase reporter assay; format: cell-based, mouse; conditions: peptide 100 μg/mL, 12 h, luminescence, p < 0.05 vs control group
Description: (§2) The ARE sequences and NF-κB element sequences are referenced in [52, 54]. Based on the sequence information, plasmids pCD-ARE-puro and pCDH-NF-κB-puro were constructed. These plasmids, along with pMD2.G and psPAX2, were transfected into HEK293T cells using a three-plasmid virus packaging system to produce viruses. The virus supernatants were then used to infect IPEC-J2 or RAW 264.7 cells, followed by positive clone screening with Puromycin. For the testing of stable cell lines, tBHQ was used for IPEC-J2-Lucia ARE cells and LPS was used for RAW-Lucia NF-κB cells.
(§3) Candidate peptides (100 μg/mL) were incubated with RAW-Lucia NF-κB or IPEC-J2-Lucia ARE cells (3 × 10⁵ cells/well) in 96-well plates for 12 h. LPS (100 ng/mL) was used as the positive control for the RAW-Lucia NF-κB cells and tBHQ (10 μM) was used as the positive control for the IPEC-J2-Lucia ARE cells. Subsequently, 15 μL of the culture supernatant was mixed with 50 μL of detection buffer (50 mM HEPES, pH 7.0; 50 mM NaCl; 0.05% CHAPS; 10 mM EDTA; and 1 μM coelenterazine). Luminescence was measured using a multimode plate reader, and relative luminescence units (RLUs) were calculated.

HepG2 cells = experiment: H2O2-induced oxidative damage model in HepG2 cells; format: cell-based; conditions: peptide 100 ng/mL pre-incubation 2 h, then H2O2 650 μM 6 h; for Protective effect against H2O2-induced oxidative damage (result in words): CCK-8 viability, vs model group
Experimental: HepG2 cells (2 × 10^5 cells/well) were seeded into 96-well plates and incubated overnight at 37 °C with 5% CO2. The supernatant was removed, and hybrid or parent peptides were added at a final concentration of 100 ng/mL for 2 h. H2O2 (Sigma-Aldrich, St. louis, MO, USA) was then added to a final concentration of 650 μM and the cells were further incubated for 6 h. Cell viability was assessed using the CCK-8 assay.

IPEC-J2-Lucia ARE cells = experiment: ARE luciferase reporter assay; format: cell-based; conditions: peptide 100 μg/mL, 12 h, luminescence
Description: as §2, §3

Row | Sequence | Expression of IL-6 (result in words) (IL-6) | Expression of IL-1β (result in words) (IL-1β) | Expression of TNF-α (result in words) (TNF-α) | Activation of the NF-κB signaling pathway (result in words) (RAW-Lucia NF-κB cells) | Protective effect against H2O2-induced oxidative damage (result in words) (HepG2 cells) | Stimulation of the ARE pathway (result in words) (IPEC-J2-Lucia ARE cells) | Increase of HepG2 cell viability compared to the H2O2-treated group (HepG2 cells; CCK-8)
1 | EVVEEAYGPSSYGYG [TbY, hybrid peptide of parent peptides Tb and Y] | significantly upregulated | significantly upregulated | significantly upregulated | significantly activated | – | – | –
2 | KEKKEVVEYGPSSYGYG [TaY, hybrid peptide of parent peptides Ta and Y] | significantly upregulated | significantly upregulated | significantly upregulated | – | significant differences compared to the model group | stimulate the ARE pathway | –
3 | QLNWDRKDVY [MP, hybrid peptide of parent peptides M and P] | significantly upregulated | significantly upregulated | significantly upregulated | – | significant differences compared to the model group | stimulate the ARE pathway | –
4 | RGPPPRKDVY [RP, hybrid peptide of parent peptides R and P] | significantly upregulated | significantly upregulated | significantly upregulated | significantly activated | – | – | –
5 | RKDVYRGPPP [PR, hybrid peptide of parent peptides P and R] | significantly upregulated | significantly upregulated | significantly upregulated | significantly activated | – | – | –
6 | RKDVYYGPSSYGYG [PY, hybrid peptide of parent peptides P and Y] | – | – | – | – | significant differences compared to the model group | stimulate the ARE pathway | –
7 | YGPSSYGYGEVVEEA [YTb, hybrid peptide of parent peptides Y and Tb] | particularly upregulated | particularly upregulated | – | – | – | – | –
8 | YGPSSYGYGKEKKEVVE [YTa, hybrid peptide of parent peptides Y and Ta] | significantly increased | – | – | significantly activated | significant differences compared to the model group | – | 12%
9 | YGPSSYGYGRKDVY [YP, hybrid peptide of parent peptides Y and P] | – | – | – | – | – | stimulate the ARE pathway | –
